Values quoted from earlier work as cited in publication PMC11938273 (Journal of Chemical Information and Modeling, 2025).
Where a name gives a salt, the structure may show the parent alone. *1 amine or outer side, *2 acyl side, *3 side chain or, on linkers, in order; H or OH if unused. Where a SMILES comes first, the peptide text is derived from it. Bridges are numbered along the chain shown (N, C = ends). Roman numbers before positions name the chains, in order. [ ]: non-standard residue; d: D form. Actinocin(9to1) = Cc1c2oc3c(C)ccc(C(=O)[*:1])c3nc-2c(C(=O)[*:2])c(N)c1=O; NMeV = CN[C@H](C(=O)O)C(C)C; Sar = CNCC(=O)O

Conditions: in vivo; cited from earlier work

| Structure (SMILES) | CNS status |
| --- | --- |
| CC(C)CCCCC(=O)N[C@@H](CCN)C(=O)N[C@H](C(=O)N[C@@H](CCN)C(=O)N[C@H]1CCNC(=O)[C@H]([C@@H](C)O)NC(=O)[C@H](CCN)NC(=O)[C@H](CCN)NC(=O)[C@H](CC(C)C)NC(=O)[C@@H](Cc2ccccc2)NC(=O)[C@H](CCN)NC1=O)[C@@H](C)O (racemic) [Polymyxin B2, rac-N-((R)-4-amino-1-(((2R,3S)-1-(((R)-4-amino-1-oxo-1-(((3R,6R,9R,12R,15S,18R,21R)-6,9,18-tris(2-aminoethyl)-15-benzyl-3-((S)-1-hydroxyethyl)-12-isobutyl-2,5,8,11,14,17,20-heptaoxo-1,4,7,10,13,16,19-heptaazacyclotricosan-21-yl)amino)butan-2-yl)amino)-3-hydroxy-1-oxobutan-2-yl)amino)-1-oxobutan-2-yl)-6-methylheptanamide] | Negative |
| COC(=O)c1cnc2n1CCc1ccccc1C2=C1CCN(CCc2ccc(OCc3ccc4ccccc4n3)cc2)CC1 [Laniquidar, methyl 11-(1-(4-(quinolin-2-ylmethoxy)phenethyl)piperidin-4-ylidene)-6,11-dihydro-5H-benzo[d]imidazo[1,2-a]azepine-3-carboxylate] | Efflux transporter substrate |
| CN1Cc2c(C(=O)OCCF)ncn2-c2ccc(F)cc2C1=O [Fluoroethylflumazenil (FFMZ), 2-Fluoroethyl 8-fluoro-5-methyl-6-oxo-5,6-dihydro-4H-benzo [f]imidazo[1,5-a] [1, 4]diazepine-3-carboxylate] | Positive |
| C=CCN1CCC[C@H]1CNC(=O)c1cc(CCCF)cc(OC)c1OC [Fallypride, (S)-N-((1-allylpyrrolidin-2-yl)methyl)-1-(5-(3-fluoropropyl)-2,3-dimethoxyphenyl)ethenamine] | Positive |
| CC[C@H]1OC(=O)[C@H](C)[C@@H](O[C@H]2C[C@@](C)(OC)[C@@H](O)[C@H](C)O2)[C@H](C)[C@@H](O[C@@H]2O[C@H](C)C[C@H](N(C)C)[C@H]2O)[C@](C)(OC)C[C@@H](C)C(=O)[C@H](C)[C@@H](O)[C@]1(C)O (mixture of isomers) [Clarithromycin, rac-(3R,4S,5S,6R,7R,9R,11R,12R,13S,14R)-6-(((2S,3R,4S,6R)-4-(dimethylamino)-3-hydroxy-6-methyltetrahydro-2H-pyran-2-yl)oxy)-14-ethyl-12,13-dihydroxy-4-(((2R,4R,5S,6S)-5-hydroxy-4-methoxy-4,6-dimethyltetrahydro-2H-pyran-2-yl)oxy)-7-methoxy-3,5,7,9,11,13-hexamethyloxacyclotetradecane-2,10-dione] | Negative |
| CCC(C)CCCC(=O)N[C@H](CCN)C(=O)N[C@@H](C(=O)N[C@H](CCN)C(=O)N[C@@H]1CCNC(=O)[C@H]([C@H](C)O)NC(=O)[C@@H](CCN)NC(=O)[C@@H](CCN)NC(=O)[C@@H](CC(C)C)NC(=O)[C@H](CC(C)C)NC(=O)[C@@H](CCN)NC1=O)[C@H](C)O (mixture of isomers) [Colistin, rac-N-((R)-4-amino-1-(((2R,3S)-1-(((R)-4-amino-1-oxo-1-(((3S,6R,9R,12R,15S,18R,21R)-6,9,18-tris(2-aminoethyl)-3-((S)-1-hydroxyethyl)-12,15-diisobutyl-2,5,8,11,14,17,20-heptaoxo-1,4,7,10,13,16,19-heptaazacyclotricosan-21-yl)amino)butan-2-yl)amino)-3-hydroxy-1-oxobutan-2-yl)amino)-1-oxobutan-2-yl)-5-methylheptanamide] | Negative |
| COC(=O)c1ccccc1-c1c2ccc(=N)cc-2oc2cc(N)ccc12 [Rhodamine 123, 6-Amino-9-[2-(methoxycarbonyl)phenyl]-3H-xanthen-3-iminium] | Efflux transporter substrate |
| CN1[C@H]2CC[C@@H]1[C@@H](C(=O)OCCF)[C@@H](c1ccc(I)cc1)C2 [2-FE-beta-CIT, (1R,2S,3S,5S)-2-fluoroethyl-3-(4-iodophenyl)-8-methyl-8-azabicyclo[3.2.1]octane-2-carboxylate] | Positive |
| Cc1nc2n(c(=O)c1CCN1CCC(C(=O)c3ccc(F)cc3)CC1)CCS2 [Setoperone, 6-(2-(4-(4-Fluorobenzoyl)piperidin-1-yl)ethyl)-7-methyl-2H-thiazolo[3,2-a]pyrimidin-5(3H)-one] | Positive |
| CN(C(=O)C(c1ccccc1)c1ccccc1)[C@H](CN1CC[C@H](O)C1)c1ccccc1 [Asimadoline, N-{(1S)-2-[(3S)-3-Hydroxy-1-pyrrolidinyl]-1-phenylethyl}-Nmethyl-2,2-diphenylacetamide] | Efflux transporter substrate |
| CN1CCc2cc(Cl)c(O)cc2[C@@H](c2ccccc2)C1 [SCH-23390 hydrochloride, (R)-8-chloro-3-methyl-5-phenyl-2,3,4,5-tetrahydro1H-benzo[d]azepin-7-ol] | Positive |
| CCOC(=O)c1cncn1[C@H](C)c1ccccc1 [Etomidate, (R)-ethyl 1-(1-phenylethyl)-1H-imidazole-5-carboxylate] | Positive |
| C[N+]1(CC2CC2)CC[C@]23c4c5ccc(O)c4O[C@H]2C(=O)CC[C@@]3(O)C1C5 (stereo in doubt) [Methylnaltrexone bromide, (3S,4S,4aS,7aR,12bS)-3-(cyclopropylmethyl)-4a,9-dihydroxy-3-methyl-7-oxo-2,3,4,4a,5,6,7,7a-octahydro-1H-4,12-methanobenzofuro[3,2-e]isoquinolin-3-ium] | Negative |
| CCOc1ccc(-c2nc3cc(-c4nc5cc(N6CCN(C)CC6)ccc5[nH]4)ccc3[nH]2)cc1 [Hoechst 33342, 2′-(4-Ethoxyphenyl)-5-(4-methyl-1-piperazinyl)-1H,1′H-2,5′-bibenzimidazole] | Efflux transporter substrate |
| CCOC(=O)c1ncn2c1CN(C)C(=O)c1cc(N=[N+]=[N-])ccc1-2 [Azidomazenil, Ethyl-8-azido-5-methyl-6-oxo-4H-imidazo[1,5-a][1,4]benzodiazepine-3-carboxylate] | Positive |
| CCC(=O)NS(=O)(=O)c1ccc(-c2c(-c3ccccc3)noc2C)cc1 [Parecoxib, N-{[4-(5-Methyl-3-phenyl-1,2-oxazol4-yl)phenyl]sulfonyl}propanamide] | Negative |
| COC(=O)[C@H]1[C@@H](c2ccc(F)cc2)C[C@@H]2CC[C@H]1N2C/C=C/I [beta-CFT, (1R,2S,3S,5S)-methyl-3-(4-fluorophenyl)-8-((E)-3-iodoallyl)-8-azabicyclo[3.2.1]octane-2-carboxylate] | Positive |
| Cc1c(O)cccc1C(=O)N[C@@H](CSc1ccccc1)[C@H](O)CN1C[C@H]2CCCC[C@H]2C[C@H]1C(=O)NC(C)(C)C [Nelfinavir, (3S,4aS,8aS)-2-[(2R,3R)-2-Hydroxy-3-[(3-hydroxy-2-methylbenzoyl)amino]-4-(phenylsulfanyl)butyl]-N-(2-methyl-2-propanyl)decahydro3-isoquinolinecarboxamide] | Efflux transporter substrate |
| O=S(=O)(O)CCS [Mesna (Coenzyme M), 2-mercaptoethane sulfonic acid] | Negative |
| CC[C@H]1OC(=O)[C@H](C)[C@@H](O[C@H]2C[C@@](C)(OC)[C@@H](O)[C@H](C)O2)[C@H](C)[C@@H](O[C@@H]2O[C@H](C)C[C@H](N(C)C)[C@H]2O)[C@](C)(O)C[C@@H](C)/C(=N\OCOCCOC)[C@H](C)[C@@H](O)[C@]1(C)O [Roxithromycin] | Negative |
| CN/C(=C\[N+](=O)[O-])NCCSCc1ccc(CN(C)C)o1 [Ranitidine, (E)-N-{2-[({5-[(Dimethylamino)methyl]-2-furyl}methyl)sulfanyl]ethyl}-N′-methyl-2-nitro-1,1-ethenediamine] | Efflux transporter substrate |
| CNC(C)C(O)c1cccc(O)c1 (centres unmarked) [mHED, 3-[1-Hydroxy-2-(methylamino)propyl]phenol] | Negative |
| COC(=O)c1cncn1[C@H](C)c1ccccc1 [Metomidate, (R)-methyl 1-(1-phenylethyl)-1H-imidazole-5-carboxylate] | Positive |
| Cc1c2oc3c(C)ccc(C(=O)N[C@@H]4C(=O)N[C@H](C(C)C)C(=O)N5CCC[C@H]5C(=O)N(C)CC(=O)N(C)[C@@H](C(C)C)C(=O)O[C@@H]4C)c3nc-2c(C(=O)N[C@@H]2C(=O)N[C@H](C(C)C)C(=O)N3CCC[C@H]3C(=O)N(C)CC(=O)N(C)[C@@H](C(C)C)C(=O)O[C@@H]2C)c(N)c1=O [Actinomycin D] (I: T[dV]P[Sar][NMeV] / II: T[dV]P[Sar][NMeV]; ester I:1-I:C, II:1-II:C; linker I:N-II:N via Actinocin(9to1)) | Efflux transporter substrate |
| COc1ccc(C2CNC(=O)C2)cc1OC1CCCC1 (centres unmarked) [Rolipram, 4-(3-(Cyclopentyloxy)-4-methoxyphenyl)pyrrolidin-2-one] | Positive |
| CNc1ccc(-c2nc3ccc(O)cc3s2)cc1F [Flutemetamol, 2-(3-fluoro-4-(methylamino)phenyl)benzo[d]thiazol-6-ol] | Positive |
| CNc1ccc(-c2nc3ccc(O)cc3s2)cc1 [6-OH-BTA-1 (PiB), 2-(4-(Methylamino)phenyl)benzo[d]thiazol-6-ol] | Positive |
| COc1cccc2c1C(=O)c1c(O)c3c(c(O)c1C2=O)C[C@@](O)(C(C)=O)C[C@@H]3O[C@H]1C[C@H](N)[C@H](O)[C@H](C)O1 [Daunorubicin, (1S,3S)-3-Acetyl-3,5,12-trihydroxy-10-methoxy-6,11-dioxo-1,2,3,4,6,11-hexahydro-1-tetracenyl 3-amino-2,3,6-trideoxy-α-L-lyxo-hexopyranoside] | Efflux transporter substrate |
| CNCC(O)CCN1c2ccccc2N(c2ccccc2)S1(=O)=O (centres unmarked) [Me@HAPTHI, 4-(2,2-Dioxido-3-phenyl-2,1,3-benzothiadiazol-1(3H)-yl)-1-(methylamino)-2-butanol] | Negative |
